Measurements: ChEMBL document CHEMBL1131999, “Design, synthesis and testing of amino-bicycloaryl based orally bioavailable thrombin inhibitors” (Bioorg Med Chem Lett, 1999)

Experiments:
Serine protease 1 = Serine protease 1 (Homo sapiens, UniProt P07477); assay: In vitro trypsin inhibition
Prothrombin = Prothrombin (Homo sapiens, UniProt P00734); assay: In vitro thrombin inhibition
Caco-2 = conditions: Homo sapiens
Description: The compound was evaluated in vitro for the Caco-2 cell permeability.

[1] = Oral bioavailability in dog; format: ADME, organism-based, Canis lupus familiaris; conditions: in vivo

Sequence of Serine protease 1 (P07477 whole entry): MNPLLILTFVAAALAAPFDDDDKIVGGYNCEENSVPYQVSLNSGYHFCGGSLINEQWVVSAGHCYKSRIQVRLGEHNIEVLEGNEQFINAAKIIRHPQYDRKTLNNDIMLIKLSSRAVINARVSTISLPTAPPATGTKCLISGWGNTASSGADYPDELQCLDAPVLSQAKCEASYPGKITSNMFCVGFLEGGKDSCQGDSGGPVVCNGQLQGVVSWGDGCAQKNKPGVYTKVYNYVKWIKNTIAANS

Structure (SMILES)	IC50 (Serine protease 1) [µM]	IC50 (Prothrombin) [µM]	Papp (Caco-2) [×10⁻⁶ cm/s]	bioavailability [1] [%]
COc1ccc2ccc(S(=O)(=O)NC(Cc3ccc4ccnc(N)c4c3)C(=O)N3CCC(C)CC3)cc2c1 (stereo not given)	8	0.63	–	–
CC1CCN(C(=O)C(Cc2cc3c(N)nccc3s2)NS(=O)(=O)c2ccc3ccccc3c2)CC1 (stereo not given)	205	209	11.7	–
COc1ccc2ccc(S(=O)(=O)NC(Cc3cc4c(N)nccc4s3)C(=O)N3CCN(C)CC3)cc2c1 (stereo not given)	13	6	–	–
COc1ccc2ccc(S(=O)(=O)NC(Cc3cc4c(N)nccc4s3)C(=O)N3CCC(C)CC3)cc2c1 (stereo not given)	4	–	12.1	36
CC1CCN(C(=O)C(Cc2cccc(C(=N)N)c2)NS(=O)(=O)c2ccc3ccccc3c2)CC1 (stereo not given)	1.9	0.64	–	–
COc1ccc2ccc(S(=O)(=O)NC(Cc3cc4c(N)nccc4s3)C(=O)N3CCC(C(C)=O)CC3)cc2c1 (stereo not given)	2	1.4	2.3	–
COc1ccc2ccc(S(=O)(=O)NC(Cc3cc4c(N)nccc4s3)C(=O)N3CCN(S(C)(=O)=O)CC3)cc2c1 (stereo not given)	18	0.56	–	–
COc1ccc2ccc(S(=O)(=O)NC(Cc3cc4c(N)nccc4o3)C(=O)N3CCC(C)CC3)cc2c1 (stereo not given)	6	1.58	0.9	–
COc1ccc2ccc(S(=O)(=O)NC(Cc3ccc4c(N)nccc4c3)C(=O)N3CCC(C)CC3)cc2c1 (stereo not given)	27	48	7.5	–
COc1cc2ccc(S(=O)(=O)NC(Cc3cc4c(N)nccc4s3)C(=O)N3CCC(C)CC3)cc2cc1OC (stereo not given)	4	5	–	–
